{"source": "ChEMBL document CHEMBL1201862", "about": "“PubChem BioAssay data set” (2004)", "key": {"[1]": {"assay": "cells"}, "[2]": {"molecular_target": "T1, Oxysterols receptor LXR-beta (Homo sapiens, UniProt P55055)", "T1 sequence (P55055 whole entry)": "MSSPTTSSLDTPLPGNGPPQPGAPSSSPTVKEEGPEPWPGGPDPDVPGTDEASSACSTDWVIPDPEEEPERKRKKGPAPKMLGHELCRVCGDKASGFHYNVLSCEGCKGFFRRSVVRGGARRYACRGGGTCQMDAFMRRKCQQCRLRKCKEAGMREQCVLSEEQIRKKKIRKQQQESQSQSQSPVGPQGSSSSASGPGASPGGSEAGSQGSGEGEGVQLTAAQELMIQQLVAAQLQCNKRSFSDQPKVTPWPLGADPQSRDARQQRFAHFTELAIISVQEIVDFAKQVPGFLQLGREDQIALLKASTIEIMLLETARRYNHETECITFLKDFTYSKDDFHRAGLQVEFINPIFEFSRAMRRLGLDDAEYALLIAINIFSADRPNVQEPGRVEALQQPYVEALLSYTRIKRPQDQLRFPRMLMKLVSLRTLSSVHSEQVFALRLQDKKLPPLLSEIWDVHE", "assay_type": "functional, cell-based"}, "[3]": {"test_system": "HeLa", "assay": "viability loss in HeLa cells – cell-based, ATP luminescence, cherry-pick samples, cytotoxicity control, dose response (AID 687004)", "assay_type": "functional"}, "[4]": {"molecular_target": "Beta-galactosidase (Escherichia coli, UniProt Q8VNN2)", "sequence (Q8VNN2 whole entry)": "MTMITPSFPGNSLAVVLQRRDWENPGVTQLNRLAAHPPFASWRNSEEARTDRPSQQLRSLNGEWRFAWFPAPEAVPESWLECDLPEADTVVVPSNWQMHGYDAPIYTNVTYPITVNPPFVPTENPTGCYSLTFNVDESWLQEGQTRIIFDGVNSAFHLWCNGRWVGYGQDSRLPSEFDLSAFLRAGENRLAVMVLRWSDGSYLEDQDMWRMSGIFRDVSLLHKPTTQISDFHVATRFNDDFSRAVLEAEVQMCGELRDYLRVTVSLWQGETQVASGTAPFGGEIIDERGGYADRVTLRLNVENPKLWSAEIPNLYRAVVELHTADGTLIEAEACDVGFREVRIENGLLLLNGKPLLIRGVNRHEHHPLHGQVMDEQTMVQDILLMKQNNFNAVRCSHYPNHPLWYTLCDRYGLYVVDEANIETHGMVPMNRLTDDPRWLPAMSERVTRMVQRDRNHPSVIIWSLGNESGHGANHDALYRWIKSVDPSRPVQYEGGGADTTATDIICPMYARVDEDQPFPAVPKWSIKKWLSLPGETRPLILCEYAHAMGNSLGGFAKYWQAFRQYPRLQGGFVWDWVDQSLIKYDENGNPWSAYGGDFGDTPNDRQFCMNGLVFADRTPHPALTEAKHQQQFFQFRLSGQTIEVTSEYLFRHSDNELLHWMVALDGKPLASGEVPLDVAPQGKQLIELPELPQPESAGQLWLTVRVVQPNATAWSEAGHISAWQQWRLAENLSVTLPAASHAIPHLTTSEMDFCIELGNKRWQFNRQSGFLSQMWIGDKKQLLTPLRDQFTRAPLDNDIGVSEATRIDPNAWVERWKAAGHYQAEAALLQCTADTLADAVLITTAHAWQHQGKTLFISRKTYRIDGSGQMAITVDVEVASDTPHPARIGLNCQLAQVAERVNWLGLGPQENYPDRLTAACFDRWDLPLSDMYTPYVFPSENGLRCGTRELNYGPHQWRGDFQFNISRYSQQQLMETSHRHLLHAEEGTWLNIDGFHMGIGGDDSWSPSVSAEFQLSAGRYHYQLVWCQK", "assay": "PubChem AID 485352", "assay_type": "functional"}, "[5]": {"molecular_target": "T2, Type-1 angiotensin II receptor (Homo sapiens, UniProt P30556)", "T2 sequence (P30556 whole entry)": "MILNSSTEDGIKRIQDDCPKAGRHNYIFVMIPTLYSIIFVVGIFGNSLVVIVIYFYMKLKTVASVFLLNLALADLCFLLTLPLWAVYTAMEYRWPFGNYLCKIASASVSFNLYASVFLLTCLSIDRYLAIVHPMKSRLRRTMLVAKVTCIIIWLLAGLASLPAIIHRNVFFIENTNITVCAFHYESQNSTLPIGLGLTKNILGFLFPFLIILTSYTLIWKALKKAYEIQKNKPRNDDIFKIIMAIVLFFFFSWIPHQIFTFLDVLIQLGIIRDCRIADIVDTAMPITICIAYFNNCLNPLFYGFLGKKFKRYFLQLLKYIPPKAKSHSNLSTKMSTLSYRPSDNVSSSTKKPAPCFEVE", "assay": "antagonism of angiotensin II type 1 receptor – cell-based, uHTS hits, selectivity assay for APJ receptor antagonist project, dose response (AID 463214)", "assay_type": "functional"}, "[6]": {"assay": "toxicity toward HepG2 liver cells – cell-based, plate reader, cherry-pick, antagonist series, cytotoxicity control, dose response (AID 743416)", "assay_type": "functional"}, "[7]": {"assay": "blockade of melanocortin 4 receptor signaling – cell-based, plate reader, cherry pick, counter-screen for LGR2 antagonist project, dose response (AID 743444);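 further: transfected HEK 293 cells stimulated with alpha-MSH peptide; potency of inhibitors of the alpha-MSH evoked signal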", "assay_type": "functional"}, "[8]": {"assay": "A549 cell cytotoxicity, dose response, cytotoxicity control, plate reader, cherry-pick, antagonist series (AID 743412)", "assay_type": "functional, cell-based"}, "[9]": {"assay": "blockers of bursicon-stimulated LGR2 cAMP reporter – cell-based, HEK293, CRE-luciferase reporter, cherry pick, set 2, dose response (AID 743343);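 further: transfected cells were stimulated with diluted bursicon conditioned medium after compound addition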", "assay_type": "functional"}, "[10]": {"molecular_target": "Tyrosyl-DNA phosphodiesterase 2 (Homo sapiens, UniProt O95551)", "sequence (O95551 whole entry)": "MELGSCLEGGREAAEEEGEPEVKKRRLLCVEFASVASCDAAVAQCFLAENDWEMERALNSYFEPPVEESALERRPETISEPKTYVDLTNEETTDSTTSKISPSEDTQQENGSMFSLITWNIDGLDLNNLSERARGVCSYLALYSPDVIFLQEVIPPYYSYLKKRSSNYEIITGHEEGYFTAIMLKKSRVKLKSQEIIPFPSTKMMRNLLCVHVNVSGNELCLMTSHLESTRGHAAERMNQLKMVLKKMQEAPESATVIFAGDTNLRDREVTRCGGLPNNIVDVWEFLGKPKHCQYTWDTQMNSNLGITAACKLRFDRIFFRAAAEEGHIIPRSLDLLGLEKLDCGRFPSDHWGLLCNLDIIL", "assay": "potency against TDP2 phosphodiesterase activity – biochemical, epi absorbance, IC50, dose response (AID 743297)"}, "[11]": {"assay": "non-specific 3'UTR reporter inhibition in Clone20-Shn3RL – cell-based, Renilla luciferase, cherry-picked, counter-screen for Shn3 inhibitor project, dose response (AID 624133)", "assay_type": "functional"}, "[12]": {"assay": "microbe, parasite or virus in culture", "assay_type": "functional", "settings": "Mycobacterium tuberculosis"}, "[13]": {"molecular_target": "T3, Ubiquitin-conjugating enzyme E2 N (Homo sapiens, UniProt P61088)", "T3 sequence (P61088 whole entry)": "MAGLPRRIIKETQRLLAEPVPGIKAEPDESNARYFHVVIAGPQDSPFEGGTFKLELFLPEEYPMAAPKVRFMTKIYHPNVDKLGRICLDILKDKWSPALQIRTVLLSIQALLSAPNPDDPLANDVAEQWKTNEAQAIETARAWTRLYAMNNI", "assay_type": "functional"}, "[14]": {"assay": "Luminescence Cell-Based Dose Retest to Confirm Inhibitors of Cancer Stem Cells. [Related pubchem assays (depositor defined):AID2717, AID2721]", "assay_type": "functional", "settings": "Homo sapiens"}, "[15]": {"assay": "glucagon-like peptide-1 release potency in STC-1, concentration-response, half-maximal inhibitory concentration in the STC-1 line (AID 1117345)", "assay_type": "functional, cell-based"}, "[16]": {"assay": "reduction of Shn3 3'UTR-driven luciferase in osteoblasts – cell-based, Clone20 osteoblasts, firefly luciferase, cherry-picked, dose response (AID 624132)", "assay_type": "functional"}, "[17]": {"assay": "Potency on glucagon-like peptide 1 release, dose-response in NCI-H716 cell line, half maximal inhibitory concentration (AID 1117344)", "assay_type": "functional, cell-based"}, "[18]": {"test_system": "INS1", "assay": "INS-1E survival protection against cytokine death – cell-based, luminescence, retest, dose response (AID 449756);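 further: cell death triggered by IL-1 beta plus TNF-alpha plus IFN-gamma mixture; protective hits raise ATP signal compared with cytokine alone wells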", "assay_type": "functional", "settings": "Rattus norvegicus"}, "[19]": {"molecular_target": "T4, Trace amine-associated receptor 1 (Homo sapiens, UniProt Q96RJ0)", "T4 sequence (Q96RJ0 whole entry)": "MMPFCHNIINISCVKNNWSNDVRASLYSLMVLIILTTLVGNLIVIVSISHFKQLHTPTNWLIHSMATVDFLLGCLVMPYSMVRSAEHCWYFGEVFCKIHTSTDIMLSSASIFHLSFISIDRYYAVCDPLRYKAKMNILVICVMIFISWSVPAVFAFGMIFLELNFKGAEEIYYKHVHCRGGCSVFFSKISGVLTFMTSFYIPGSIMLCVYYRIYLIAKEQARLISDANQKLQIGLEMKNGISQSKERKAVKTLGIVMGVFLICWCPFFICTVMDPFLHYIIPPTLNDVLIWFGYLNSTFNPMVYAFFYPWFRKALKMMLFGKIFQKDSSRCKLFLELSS", "assay": "Fluorescence-based cell-based high throughput dose response assay to identify agonists of the human trace amine associated receptor 1 (TAAR1).", "assay_type": "functional"}, "[20]": {"molecular_target": "T4, Trace amine-associated receptor 1", "assay": "Counterscreen for agonists of the human trace amine associated receptor 1 (hTAAR1): Fluorescence-based cell-based high throughput dose response assay to identify hTAAR1 agonist that also desensitize TAAR1 receptor response.", "assay_type": "functional"}, "[21]": {"assay": "cells", "assay_type": "functional, cell-based"}, "[22]": {"assay": "cells", "assay_type": "functional, cell-based", "remark": "listed apart in the source"}, "[23]": {"molecular_target": "Albumin (Bos taurus, UniProt P02769)", "sequence (P02769 whole entry)": "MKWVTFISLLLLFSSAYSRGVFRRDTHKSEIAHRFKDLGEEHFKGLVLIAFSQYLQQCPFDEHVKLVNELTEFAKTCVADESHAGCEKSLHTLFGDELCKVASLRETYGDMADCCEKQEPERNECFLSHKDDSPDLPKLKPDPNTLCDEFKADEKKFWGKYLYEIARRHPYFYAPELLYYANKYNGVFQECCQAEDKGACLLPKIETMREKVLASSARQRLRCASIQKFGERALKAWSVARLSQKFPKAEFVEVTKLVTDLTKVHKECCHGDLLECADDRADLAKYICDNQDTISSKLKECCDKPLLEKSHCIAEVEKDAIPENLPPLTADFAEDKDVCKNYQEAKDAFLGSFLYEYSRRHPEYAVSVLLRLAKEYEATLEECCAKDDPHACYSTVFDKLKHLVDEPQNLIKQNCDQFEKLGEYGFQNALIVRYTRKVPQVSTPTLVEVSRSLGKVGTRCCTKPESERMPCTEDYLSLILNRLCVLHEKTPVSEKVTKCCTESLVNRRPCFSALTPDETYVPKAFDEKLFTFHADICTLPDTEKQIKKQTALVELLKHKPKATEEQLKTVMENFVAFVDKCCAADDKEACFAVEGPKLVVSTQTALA", "assay": "Counterscreen for inhibitors of T-cell receptor (TCR)-CD3 interaction: Fluorescence-based biochemical high throughput dose response assay to identify inhibitors of T-cell receptor (TCR)-CD3 interaction using a TAMRA-labeled BSA probe.", "assay_type": "functional"}}, "note": "The source made the active and inactive calls."}
{"compound": "Nc1nc2c(-c3ccc(Br)cc3)nnn2c2ccccc12", "values": [{"measurement": "EC50", "setting": "[1]", "value": "> 67.6 µM (inactive)"}, {"measurement": "EC50", "setting": "[2]", "value": "> 67.6 µM (inactive)"}]}
{"compound": "COc1ccc(C(=O)NC(=S)Nc2cccc(Cl)c2N2CCOCC2)cc1[N+](=O)[O-]", "values": [{"measurement": "AC50", "setting": "[3]", "value": "28.8 µM (active)"}, {"measurement": "AC50", "setting": "[3]; Homo sapiens", "value": "> 52 µM (inactive)"}, {"measurement": "EC50", "setting": "[4]", "value": "> 40 µM (inactive)"}, {"measurement": "IC50", "setting": "[5]", "value": "> 40 µM (not active)"}]}
{"compound": "Cc1ccc(C(=O)NC2CCCCCCC2)c(Cl)c1", "values": [{"measurement": "AC50", "setting": "[6]", "value": "25.6 µM (active)"}, {"measurement": "AC50", "setting": "[7]", "value": "5.7 µM (active)"}, {"measurement": "AC50", "setting": "[8]", "value": "25.8 µM (active)"}, {"measurement": "AC50", "setting": "[9]", "value": "8.04 µM (active)"}]}
{"compound": "Cc1cc(NC2=CC(=O)C(=O)c3ccccc32)no1", "values": [{"measurement": "IC50", "setting": "[10]", "value": "3.52 µM (active)"}]}
{"compound": "CCCCCCCCNC(C)C(O)c1ccc(SC(C)C)cc1", "note": "(stereo unspecified) [SULOCTIDIL]", "values": [{"measurement": "AC50", "setting": "[11]", "value": "8.28 µM (active)"}, {"measurement": "CC50", "setting": "[12]", "value": "17.3 µM (active)"}, {"measurement": "IC50", "setting": "[13]", "value": "> 20 µM (inactive)"}, {"measurement": "AC50", "setting": "[14]", "value": "2.11 µM (active)"}, {"measurement": "IC50", "setting": "[15]", "value": "> 40 µM (inactive)"}, {"measurement": "AC50", "setting": "[16]", "value": "3.94 µM (active)"}, {"measurement": "IC50", "setting": "[17]", "value": "13 µM (inactive)"}, {"measurement": "AC50", "setting": "[18]", "value": "8.21 µM (active)"}]}
{"compound": "O=C(NCCc1cccs1)c1ccc(Cl)cc1", "values": [{"measurement": "EC50", "setting": "[19]", "value": "1.19 µM (active)"}, {"measurement": "IC50", "setting": "[20]", "value": "3.48 µM (active)"}, {"measurement": "EC50", "setting": "[21]", "value": "> 29.9 µM (inactive)"}, {"measurement": "IC50", "setting": "[22]", "value": "> 29.9 µM (inactive)"}]}
{"compound": "O=C(Cc1ccccc1)N/N=C/c1cc(Br)cc(Br)c1O", "values": [{"measurement": "IC50", "setting": "[23]", "value": "> 94.1 µM (inactive)"}]}
{"compound": "C=CC1=C(C)c2cc3[nH]c(cc4nc(cc5[nH]c(cc1n2)c(C)c5CCC(=O)O)C(CCC(=O)O)=C4C)c(C)c3C=C", "note": "[PROTOPORPHYRIN DISODIUM]", "values": [{"measurement": "IC50", "setting": "[15]", "value": "> 40 µM (inactive)"}, {"measurement": "IC50", "setting": "[17]", "value": "19.6 µM (inactive)"}]}
